# Data reported in PMC12607321, “Sumac Polyphenols as Pan-Herpesvirus Inhibitors” (International Journal of Molecular Sciences, 2025).
# Several values for one entry are separate records, joined by “and”; a condition that tells them apart may be missing. Equal values may be shown once. Read-outs that look alike come from different tables or passages of the source.
# Tests used:
# HIV-1 (HIVIIIB) = experiment: microbe, parasite or virus in culture; assay type: cell-based; details: Human immunodeficiency virus 1, MT4; HIV-1 IIIB in MT-4 cells
# in vitro [1] = details: human
# [2] = Cytotoxicity (MTT) in Vero E6 cells (HSV system); assay type: cell-based; details: African green monkey
# [3] = tested on: influenza A virus/California/07/2009 (H1N1) pdm; experiment: microbe, parasite or virus in culture; assay type: cell-based; details: for IC50: IAV H1N1pdm in MDCK cells
# B95-8 cells = experiment: Cytotoxicity (MTT) in B95-8 cells; assay type: cell-based, cotton-top tamarin (Saguinus oedipus); details: B95-8 cells, MTT, 72 h
# Description: (§1) In each virus–cell system, cytotoxicity ranges were determined for polyphenols and reference compounds using MTT assay. Half-maximal cytotoxic concentrations (CC50) were determined from the curves of the dependence of the proportion of cells retaining viability after incubation with the compound (relative to the number of cells incubated in the absence of the compound) on its concentration, using nonlinear regression equations (4 parameters).
# (§2) To assess cytotoxicity, B95-8 cells (5 × 10^5 per 1 mL) were incubated with polyphenols at 37 °C in an atmosphere of 5% CO2 for 72 h. The experiment was then carried out as described in Section 4.3.5.
# CMV (strain AD169) [4] = experiment: Anti-CMV, post-inoculation setup: inhibition of intracellular replication (cells stained for viral proteins) in HELF; assay type: cell-based, human cytomegalovirus
# HSV-1L2 = experiment: Antiviral activity in Vero E6 cells infected with HSV-1 (cytopathic effect); assay type: cell-based
# EBVB95-8 = experiment: Inhibition of EBV replication in B95-8 cells (EBV genomic DNA, real-time PCR); assay type: cell-based, Epstein–Barr virus; details: for IC50: human gammaherpesvirus 4, B-95-8, 48 h, read-out: IC50, Inhibition on EBV Replication
# CMV (strain AD169) [5] = experiment: Anti-CMV, post-inoculation setup: inhibition of infectious virus production (plaques from conditioned medium) in HELF; assay type: cell-based, human cytomegalovirus
# CMV (strain AD169) [6] = experiment: Anti-CMV, pre-inoculation setup (plaques) in HELF; assay type: cell-based, human cytomegalovirus
# [7] = Cytotoxicity (MTT) in HELF cells; details: human
# HSV-2BH = experiment: Antiviral activity in Vero E6 cells infected with HSV-2 (cytopathic effect); assay type: cell-based
# CMVTowne strain = tested on: CMVTowne strain; design: method as in ref 35 (Kim et al.); details: human foreskin fibroblasts, ref 35 (Kim et al.); cited from earlier work
# in vitro [8] = details: dog
# Vero E6 cells = experiment: Cytotoxicity (MTT) in Vero E6 cells (HSV system); assay type: cell-based
# MDCK cells = details: MTT
# [9] = Cytotoxicity (MTT) in B95-8 cells; assay type: cell-based, cotton-top tamarin (Saguinus oedipus); details: cotton-top tamarin (Saguinus oedipus)
# Description: as §1, §2
# HIV-1 = tested on: HIV-1; design: method as in ref 103 (Notka et al.); details: ref 103 (Notka et al.); cited from earlier work
# SARS-CoV-2 = tested on: SARS-CoV-2; design: method as in doi:10.2139/ssrn.4000447; details: geraniin isolated from Elaeocarpus sylvestris; cited from earlier work
# [10] = tested on: SARS-CoV-2 (HCoV-19/Russia/Moscow-PMVL-12/2020, EPI_ SL_572398); experiment: microbe, parasite or virus in culture; assay type: cell-based; details: for IC50: Severe acute respiratory syndrome coronavirus 2, Vero C1008; for Δ(lgTCID50)max: maximum difference in virus titers, Vero E6 cells
# IAV = details: cited from earlier work
# [11] = Cytotoxicity (MTT) in Vero E6 cells (SARS-CoV-2 system); assay type: cell-based; details: African green monkey
# Description: First, we performed biological testing of Rutan and geraniin against IAV and SARS-CoV-2. […] In addition, we evaluated geraniin against SARS-CoV-2 (in Vero E6 cells), and HIV-1 (in MT-4 cells) to confirm its activity. In all experiments three parameters were determined: concentrations of a drug that suppressed virus replication (IC50) or decreased cell viability (CC50) by 50% as well as their ratio—the selectivity index (SI, CC50/IC50 [123]).
# as §1
# in vitro [12] = details: human; remark: listed apart in the source
# [13] = Influenza A virus, H1N1, read-out: IC50
# [14] = Human betaherpesvirus 5, AD169, HELF
# [15] = Human alphaherpesvirus 1, Vero C1008, HSV-1L2, Vero E6, 0.1 PFU/cell, read-out: IC50
# [16] = Human alphaherpesvirus 2, Vero C1008, HSV-2BH, Vero E6, 0.1 PFU/cell, read-out: IC50
# [17] = Human betaherpesvirus 5, post-inoculation setup, CMV AD169 in HELF
compound,measurement,setting,value
"Cc1cn([C@H]2C[C@H](N=[N+]=[N-])[C@@H](CO)O2)c(=O)[nH]c1=O [Azidothymidine, reference compound]",IC50,HIV-1 (HIVIIIB),0.002 µg/mL
same,CC50,in vitro [1],3.6 µg/mL
"O=C(OC[C@H]1O[C@@H](OC(=O)c2cc(O)c(O)c(O)c2)[C@H](OC(=O)c2cc(O)c(O)c(O)c2)[C@@H](OC(=O)c2cc(O)c(O)c(O)c2)[C@@H]1OC(=O)c1cc(O)c(O)c(O)c1)c1cc(O)c(O)c(O)c1 [R5, 1,2,3,4,6-penta-O-galloyl-β-D-glucose]",CC50,[2],188 µg/mL
same,Δ(lgTCID50)max,[3],1.5
same,IC50,[3]; [13],8.85 µg/mL
same,CC50,B95-8 cells,85 µg/mL
same,reduction of the number of infected HELF,CMV (strain AD169) [4],71% and 86%
same,IC50,CMV (strain AD169) [4]; [14],7.4 µg/mL
same,IC95,HSV-1L2,25.0 µg/mL
same,IC50,"HSV-1L2; Human alphaherpesvirus 1, Vero C1008, read-out: IC50",12.5 µg/mL
same,decrease of the level of intracellular viral DNA,"EBVB95-8; 10 μg/mL, 48 h, B95-8 cells",39 ± 5%
same,IC50,EBVB95-8,> 10 µg/mL
same,IC50,CMV (strain AD169) [5]; [14],6.4 µg/mL
same,IC50,CMV (strain AD169) [6]; [14],2.2 µg/mL
same,CC50 at 72 h,[7],150 µg/mL
same,IC95,HSV-2BH,25.0 µg/mL
same,IC50,"HSV-2BH; Human alphaherpesvirus 2, Vero C1008, read-out: IC50",12.5 µg/mL
same,activity against CMV (in words),CMVTowne strain,failed to detect the activity
same,CC50,in vitro [8],86.3 µg/mL
"CCOC(=O)C1=C[C@@H](OC(CC)CC)[C@H](NC(C)=O)[C@@H](N)C1 [Oseltamivir, reference compound]",Δ(lgTCID50)max,[3],6.0
same,IC50,[3]; [13],0.02 µg/mL
same,CC50,in vitro [8],> 10 µg/mL
"O=C(OC[C@H]1O[C@@H](OC(=O)c2cc(O)c(O)c(O)c2)[C@H](OC(=O)c2cc(O)c(O)c(O)c2)[C@@H](OC(=O)c2cc(O)c(O)c(OC(=O)c3cc(O)c(O)c(O)c3)c2)[C@@H]1OC(=O)c1cc(O)c(O)c(O)c1)c1cc(O)c(O)c(O)c1 [R6, 3-bis-O-galloyl-1,2,4,6-tetra-O-galloyl-β-D-glucose]",CC50,Vero E6 cells,69.62 µg/mL
same,Δ(lgTCID50)max,[3],1.0
same,IC50,[3],>50 µg/mL
same,CC50,B95-8 cells,>20 µg/mL
same,IC50,"HSV-1L2; HSV-1L2, Vero E6, 0.1 PFU/cell",25.0 µg/mL
same,IC95,"HSV-1L2; HSV-1L2, Vero E6, 0.1 PFU/cell",>25.0 µg/mL
same,CC50,MDCK cells,93.13 µg/mL
same,IC50,"HSV-2BH; HSV-2BH, Vero E6, 0.1 PFU/cell",31.25 µg/mL
same,IC95,"HSV-2BH; HSV-2BH, Vero E6, 0.1 PFU/cell",50.0 µg/mL
"O=C1O[C@H]2C3OC(=O)c4cc(O)c(O)c(O)c4-c4c(cc(O)c(O)c4O)C(=O)OC[C@H]2O[C@@H](OC(=O)c2cc(O)c(O)c(O)c2)[C@@H]3OC(=O)c2cc(O)c(O)c3c2[C@@H]2C1=CC(=O)[C@](O)(O3)C2(O)O [Geraniin, (1R,7R,26R,28S,29R,38R)-1,13,14,15,18,19,20,34,35,39,39-Undecahydroxy-2,5,10,23,31-pentaoxo-6,9,24,27,30,40-hexaoxaoctacyclo [34.3.1.0~4,38~.0~7,26~.0~8,29~.0~11,16~.0~17, 22~.0~32,37~]tetraconta-3,11,1 3,15,17,19,21,32,34,36-decaen-28-yl 3,4,5-trihydroxybenzoate]",CC50,[2],65.9 µg/mL
same,Δ(lgTCID50)max,[3],4.5
same,IC50,[3]; [13],10.8 µg/mL
same,CC50 at 72 h,"[9]; B95-8 cells, MTT, 72 h, read-out: CC50",63 µg/mL
same,IC50,HIV-1,0.46 µg/mL
same,activity against CMV (in words),CMV (strain AD169) [4]; CMV AD169 in HELF,did not interfere
same,IC95,"HSV-1L2; HSV-1L2, Vero E6, 0.1 PFU/cell",1.56 µg/mL
same,IC50,HSV-1L2; [15],1.2 µg/mL
same,concentration range suppressing virus replication,SARS-CoV-2,1 to 25 µg/mL
same,IC50,HIV-1 (HIVIIIB),1.6 µg/mL
same,activity against EBV (in words),EBVB95-8; B95-8 cells,did not interfere
same,IC50,"[10]; SARS-CoV-2 in Vero E6 cells, read-out: IC50",5.2 µg/mL
same,Δ(lgTCID50)max,[10],4.75
same,result for geraniin against IAV compared with IC50,IAV; ref 72 (Joo et al.),5.3 µg/mL
same,result for geraniin against IAV compared with IC50,IAV; ref 96 (Choi et al.),34 µg/mL
same,CC50,[11],65.4 µg/mL
same,CC50,in vitro [1],41 µg/mL
same,IC95,"HSV-2BH; HSV-2BH, Vero E6, 0.1 PFU/cell",6.25 µg/mL
same,IC50,HSV-2BH; [16],0.39 µg/mL
same,CC50,in vitro [8],288 µg/mL
"CC(C)(C)[C@H](NC(=O)C(F)(F)F)C(=O)N1C[C@H]2[C@@H]([C@H]1C(=O)N[C@H](C#N)C[C@@H]1CCNC1=O)C2(C)C [Nirmatrelvir, reference compound]",IC50,[10],0.1 µg/mL
same,Δ(lgTCID50)max,[10],6.0
same,CC50,[11],> 20 µg/mL
"O=C(O)P(=O)(O)O [Foscarnet, reference compound]",CC50,[2],> 125 µg/mL
same,IC95,"HSV-1L2; HSV-1L2, Vero E6, 0.1 PFU/cell",62.5 µg/mL
same,IC50,HSV-1L2; [15],15.6 µg/mL
same,IC95,"HSV-2BH; HSV-2BH, Vero E6, 0.1 PFU/cell",31.25 µg/mL
same,IC50,HSV-2BH; [16],7.8 µg/mL
"O=C(OC[C@H]1O[C@@H](OC(=O)c2cc(O)c(O)c(O)c2)[C@H](OC(=O)c2cc(O)c(O)c(OC(=O)c3cc(O)c(O)c(O)c3)c2)[C@@H](OC(=O)c2cc(O)c(O)c(OC(=O)c3cc(O)c(O)c(O)c3)c2)[C@@H]1OC(=O)c1cc(O)c(O)c(OC(=O)c2cc(O)c(O)c(O)c2)c1)c1cc(O)c(O)c(O)c1 [R8, 2,3,4-bis-O-galloyl-1,6-di-O-galloyl-β-D-glucose]",CC50,Vero E6 cells,106.00 µg/mL
same,Δ(lgTCID50)max,[3],4.25
same,IC50,[3],0.8 µg/mL
same,CC50,B95-8 cells,>20 µg/mL
same,IC50,"HSV-1L2; HSV-1L2, Vero E6, 0.1 PFU/cell",10.0 µg/mL
same,IC95,"HSV-1L2; HSV-1L2, Vero E6, 0.1 PFU/cell",31.25 µg/mL
same,CC50,MDCK cells,233 µg/mL
same,IC50,"HSV-2BH; HSV-2BH, Vero E6, 0.1 PFU/cell",31.25 µg/mL
same,IC95,"HSV-2BH; HSV-2BH, Vero E6, 0.1 PFU/cell",62.5 µg/mL
"Nc1nc(O)c2ncn(COC(CO)CO)c2n1 [Ganciclovir, reference compound]",CC50 at 72 h,[9],> 1000 µg/mL
same,IC50,CMV (strain AD169) [4]; [17],0.22 µg/mL
same,CC50 at 72 h,in vitro [12],185 µg/mL
same,IC50,EBVB95-8,100 µg/mL
same,IC50,CMV (strain AD169) [5]; [17],< 0.1 µg/mL
same,"SI, Pre-Inoculation Setup","CMV (strain AD169) [6]; pre-inoculation setup, CC50/IC50",No activity
same,"IC50, Pre-Inoculation Setup","CMV (strain AD169) [6]; pre-inoculation setup, CMV AD169 in HELF",No activity
"2,4-bis-O-galloyl-1,3,6-tri-O-galloyl-β-D-glucose [R7]",CC50,Vero E6 cells,165.00 µg/mL
same,Δ(lgTCID50)max,[3],2.75
same,IC50,[3],2.13 µg/mL
same,CC50,B95-8 cells,33 µg/mL
same,IC50,HSV-1L2,5.95 µg/mL
same,IC95,HSV-1L2,8.32 µg/mL
same,CC50,MDCK cells,191.01 µg/mL
same,IC50,HSV-2BH,8.32 µg/mL
same,IC95,HSV-2BH,31.25 µg/mL
